The target in the assay is T1, Hbt2 (Hbt2p) (Lodderomyces parapsilosis, UniProt G8BG57).
T1 construct: native untagged full-length transporter in wild-type cells; assigned by knockout of HBT2
The assay is described as follows: […]-substrate uptake, wild-type versus hbt2 knockout cells. It is filed as cell-based. Conditions: 50 µM, 50 mM Tris-HCl pH 7.5, 28 °C, labelled compound.

SMILES strings stand for the structures.

Results on two compounds are retold here after publication PMC5566891, “Eukaryotic transporters for hydroxyderivatives of benzoic acid” (Scientific Reports, 2017).

T1 sequence (G8BG57 entry or part of it): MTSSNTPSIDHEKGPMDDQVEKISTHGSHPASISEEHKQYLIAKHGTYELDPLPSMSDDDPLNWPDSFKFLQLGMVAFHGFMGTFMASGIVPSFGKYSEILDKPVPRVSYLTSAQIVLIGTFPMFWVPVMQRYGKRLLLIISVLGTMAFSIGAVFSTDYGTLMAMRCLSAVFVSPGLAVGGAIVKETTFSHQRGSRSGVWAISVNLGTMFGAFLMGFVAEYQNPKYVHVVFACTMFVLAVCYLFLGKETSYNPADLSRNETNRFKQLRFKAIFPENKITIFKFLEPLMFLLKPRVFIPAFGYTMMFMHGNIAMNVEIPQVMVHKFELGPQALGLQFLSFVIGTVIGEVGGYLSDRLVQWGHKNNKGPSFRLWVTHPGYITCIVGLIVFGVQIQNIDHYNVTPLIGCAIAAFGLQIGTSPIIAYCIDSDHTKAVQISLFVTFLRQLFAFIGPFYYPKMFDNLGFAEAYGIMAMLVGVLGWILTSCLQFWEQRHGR

Consider `O=C(O)c1ccc(O)cc1` [4-hydroxybenzoate], for which the “14C-substrate uptake, wild-type versus hbt2 knockout cells” value (cells grown on 4-hydroxybenzoate or hydroquinone) was “uptake of both substrates is impaired in the ∆hbt2/∆hbt2 mutant”.
Turning to `O=C(O)c1ccc(O)c(O)c1` [protocatechuate], for the setting “cells grown on hydroquinone”, the “14C-substrate uptake, wild-type versus hbt2 knockout cells” value is given as “uptake of both substrates is impaired in the ∆hbt2/∆hbt2 mutant”.
